Results: ChEMBL document CHEMBL1133488 (Bioorg Med Chem Lett, 2000)

Biological target: T1, Scytalone dehydratase (Magnaporthe oryzae (strain 70-15 / FGSC 8958) (Rice blast fungus)(Pyricularia oryzae), UniProt P56221)
T1 sequence (P56221 whole entry): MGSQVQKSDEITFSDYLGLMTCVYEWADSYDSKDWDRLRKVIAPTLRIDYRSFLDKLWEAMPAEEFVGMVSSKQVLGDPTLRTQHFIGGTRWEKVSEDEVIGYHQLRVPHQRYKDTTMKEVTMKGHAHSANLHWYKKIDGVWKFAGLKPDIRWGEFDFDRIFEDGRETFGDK
Assay: The compound was evaluated for its binding affinity against wild type scytalone dehydratase (SD)
Set-up: species or system Pyricularia grisea

`CC(C)NC(=O)c1cc(F)ccc1O` was tested, and the Ki was 450 nM.
